We go through one compound from PMC12794274, “Therapeutic potential of Sheng-Xian-Tang in doxorubicin-induced chronic heart failure by regulation of phenylalanine metabolism disruption” (Chinese Medicine, 2026).

Data set [1] is described as follows: Rat body weight. It is filed as in vivo. Conditions: DOX group vs CON group, experiment I. The method, then: Experiment I, 48 rats were randomly divided into six groups: (1) the CON group; (2) the DOX group; (3) the DOX + enalapril (ENP, positive control, 1.8 mg/kg) group; (4) the DOX + SXT at low dose group (4 g/kg); (5) the DOX + SXT at middle dose group (8 g/kg); and […] the DOX + SXT at high dose group (16 g/kg). Except those rats in the CON group, the remaining rats received DOX at a 2.5 mg/kg per injection to a cumulative dose of 15 mg/kg. The dose of SXT for the low-dose group was set at 4 g/kg, based on the minimum human clinical daily dose (48.5 g, Table S2) converted to an equivalent rat dose using body surface area normalization (48.5 g/70 kg × 6.3 ≈ 4.4 g/kg, rounded to 4 g/kg). To evaluate a clear dose–response relationship, the medium and high doses were established at 8 g/kg and 16 g/kg, respectively, corresponding to 2 fold and 4 fold the low dose. […] Heart function was monitored by echocardiography analysis at day 39, and the CHF model was considered to be successfully established when the left ventricular ejection fraction (LVEF%) values were reduced to 50%. […]

In data set [2] the test system is PAH activity in AML12 cells. It is filed as cell-based. How it is done:
Serum biochemical parameters including brain natriuretic peptide (BNP), creatine kinase (CK), lactate dehydrogenase (LDH), alanine aminotransferase (ALT), and aspartate aminotransferase (AST) were measured using commercial ELISA kits (Nanjing Jiancheng Bioengineering Institute, Nanjing, China) according to the manufacturer’s instructions. Superoxide dismutase (SOD), and malondialdehyde (MDA) levels in liver and heart tissues were measured using assay kits from Aifang Biotechnology (Changsha, China). Phenylalanine and tyrosine concentrations in the cell were determined using an ELISA kit from Abmart (Shanghai, China).
Mouse hepatocellular cell lines (AML12), purchased from the Shanghai Cell Bank of Chinese Academy of Sciences (Shanghai, China), were cultured in Dulbecco’s Modified Eagle Medium (DMEM) supplemented with 10% fetal bovine serum (FBS) and 2 mM L-glutamine and 1% pyruvate and maintained at 37 °C in a […], 5% CO2 incubator. Cells were seeded at a density of 5 × 10^5 cells/well in 6-well plates. […] Cells’ survival rate was detected by Cell Counting Kit-8 (CCK8) Reagents (Thermo Scientific, Singapore).

The subject of data set [3] is urinary metabolites of DOX-induced CHF rats. Description: Urine metabolomics (UHPLC-Q-TOF/MS). It is filed as in vivo, rat. How it is done: Urine samples (200 μL) were mixed with 200 μL of protein precipitant (methanol: acetonitrile, 1:1) and vortexed for 30 s at 4 °C. Samples were sonicated for 10 min in an ice bath, then incubated at – 20 °C for 1 h. After centrifugation at 13,000 rpm for 15 min at 4 °C, 200 μL of supernatant was transferred to sample vials for analysis. A pooled quality control (QC) sample was prepared by combining 10 μL of supernatant from each sample. Sample analysis was performed using a Waters H-Class UPLC system coupled to a Triple TOF 6600 mass spectrometer (AB SCIEX, USA). Chromatographic separation was achieved on an ACQUITY UPLC HSS T3 column (2.1 × 100 mm, 1.7 μm; Waters) using 0.1% formic acid in water (mobile phase A) and acetonitrile (mobile phase B). […] Mass spectrometry was performed in both positive and negative ionization modes. Key parameters included: ion spray voltage, 5500/− 4500 V; m/z range, 60–1000; gas 1 and 2, 60 psi; curtain gas, 35 psi; accumulation time, 1.2 s; source temperature, 550 °C; declustering potential, 60 V. Information-dependent acquisition (IDA) was used with the following settings: m/z range, 50–1000; accumulation time, 0.05 s; collision energy, 40 ± 20 V. Data processing was performed using XC-MS plus software for peak alignment, extraction, and normalization. Metabolite identification was carried out using the MetDNA database. Multivariate statistical analysis, including principal component analysis (PCA) and orthogonal partial least squares discriminant analysis (OPLS-DA), was conducted using MetaboAnalyst 5.0. Differential metabolites were identified based on variable importance in projection (VIP) scores > 1.0 and P < 0.05. Fold change (FC) values were used to determine up- or down-regulation. Metabolic pathway analysis was performed using MetaboAnalyst 5.0, with significance set at P < 0.05.

Data set [4] has as its system phenylalanine hydroxylase (PAH). Put plainly: PAH expression in liver and heart (western blotting, immunofluorescence). It is filed as in vivo, rat. The method, then:
Immunofluorescence staining was performed on tissue sections to detect phenylalanine hydroxylase (PAH), prostaglandin-endoperoxide synthase 2 (PTGS2), and reactive oxygen species (ROS). Primary antibodies against PAH and PTGS2 were used, while ROS was detected using the DCFH-DA probe. Nuclei were counterstained with DAPI. Images were captured using a fluorescence microscope.
Protein was extracted from liver or heart tissue samples (30 mg) using lysis buffer. Total protein concentration was determined using a BCA protein assay kit (Thermo Fisher Scientific, USA). Equal amounts of protein from each sample were separated on 10–12% SDS-PAGE gels and transferred to PVDF membranes. Membranes were blocked with quick blocking buffer for 30 min, then incubated with anti-PAH primary antibody (1:1000 dilution) overnight at 4 °C. After washing, membranes were incubated with a secondary antibody for 1 h at 37 °C. Protein bands were visualized using an Odyssey infrared imaging system (JS-1070, Shanghai Peiqing Science & Technology Co., Ltd, China). Band intensities were quantified using ImageJ software.

The mark [5] stands for this setting: DOX vs CON group, experiment I, p < 0.001.
The mark [6] stands for this setting: experiment II, DOX vs CON, co-treatments vs DOX.

Consider `COc1cccc2c1C(=O)c1c(O)c3c(c(O)c1C2=O)C[C@@](O)(C(=O)CO)C[C@@H]3O[C@H]1C[C@H](N)[C@H](O)[C@H](C)O1` [DOX, Doxorubicin], for which the body weight entry in data set [1] is listed as “significant reduction”. Also, the “phenylalanine levels in AML12 cells” value in data set [2] is “significant increases”. Also, in data set [2] (AML12 cells, DOX vs CON, neomangiferin vs DOX, dose-dependent), the “phenylalanine metabolism (Phe level, Phe/Tyr ratio)” value was “significantly suppressed”. In data set [3] (DOX group vs CON group), the “urinary levels of 4-(2-aminophenyl)-2,4-dioxobutanoate, hippurate, phenylacetylglycine, 5-methoxyindoleacetate, phenylpyruvate, and phenylalanine” value is given as “significantly increased”; the “urinary levels of indole-3-acetaldehyde, urea, anthranilate, indoleacetic acid, tryptamine, N-acetyl-L-glutamate, tyrosine, and glutamate” value is reported as “significantly decreased”. In addition, in data set [3] (day 10 after DOX administration, P < 0.001), the urinary phenylalanine level entry is recorded as “sharp increase”. Also, in data set [4] (setting [5]), the “ectopic heart PAH expression” value is reported as “significantly increased” and the “liver PAH expression” value is “significantly decreased”. Besides, in data set [4] (setting [6]), the “PAH expression in heart tissue” value was “significantly raising” and the “PAH expression in liver tissue” value is on record as “substantially lowered”.
